Key:
[1] = molecular target: Gonadotropin-releasing hormone receptor (Macaca mulatta); assay: […] inhibition of monkey Gonadotropin-releasing hormone receptor
[2] = molecular target: Gonadotropin-releasing hormone receptor (Macaca mulatta); assay: […] inhibition of monkey Gonadotropin releasing hormone receptor

| Ki [1] | Ki [2] | SMILES |
| --- | --- | --- |
| 87 nM |  | COc1cccc(-c2c(C)n(Cc3c(F)cccc3F)c(=O)n(C[C@H](C)NCc3sccc3C)c2=O)c1F [1-(2,6-Difluoro-benzyl)-5-(2-fluoro-3-methoxy-phenyl)-6-methyl-3-{(S)-2-[(3-methyl-thiophen-2-ylmethyl)-amino]-propyl}-1H-pyrimidine-2,4-dione] |
| 550 nM |  | COc1cccc(-c2c(C)n(Cc3c(F)cccc3F)c(=O)n(C[C@H](C)NCc3ccccc3)c2=O)c1F [3-((S)-2-Benzylamino-propyl)-1-(2,6-difluoro-benzyl)-5-(2-fluoro-3-methoxy-phenyl)-6-methyl-1H-pyrimidine-2,4-dione] |
|  | 820 nM | COc1cccc(-c2c(C)n(Cc3c(F)cccc3F)c(=O)n(C[C@@H](C)NCc3nccs3)c2=O)c1F [1-(2,6-Difluoro-benzyl)-5-(2-fluoro-3-methoxy-phenyl)-6-methyl-3-{(R)-2-[(thiazol-2-ylmethyl)-amino]-propyl}-1H-pyrimidine-2,4-dione] |

Reference: BindingDB's records for doi:10.1021/jm030472z (Neurocrine Biosciences, 2004)
